These results are taken from patent US8846669B2, “Oxazolidinone derivative and medical composition containing same” (Legochem Biosciences, Inc., priority 2011, dated 2014).

Converted amounts (≈) assume the structure as drawn. Where two headings read alike, the source gives them in different places.

Experiment in all cases: In vitro antibacterial activity, broth microdilution MIC90
Format in all cases: cell-based
(In general: In broth dilution the organism is exposed to a series of concentrations in liquid medium.)

Test [1] has as its system Enterococcus faecalis. As to the method:
(§1) MIC90 was measured by broth microdilution method based on CLSI standards [reference: Clinical and Laboratory Standards Institute Document. (2000) Methods for Dilution Antimicrobial Susceptibility Test for Bacteria that Grow Aerobically-Fifth Edition: M7-A5. CLSI, Villanova, Pa.].
(§2) Activities of 12 strains including Staphylococcus aureus, Methicillin Resistant Staphylococcus aureus, Staphylococcus epidermidis, Methicillin Resistant Staphylococcus epidermidis, Enterococcus faecalis, Vancomycin Resistant Enterococcus faecalis, Linezolid and Vancomycin Resistant Enterococcus faecalis, Enterococcus faecium, Vancomycin Resistant Enterococcus faecium, Linezolid and Vancomycin Resistant Enterococcus faecium, and Moraxella catarrhalis, were measured, and results are shown in Table 1 below.
(§3) The final concentration of test material in the antibacterial test was from 0.063 μg/mL (minimum) to 128 μg/mL (maximum), and the final concentration of DMSO used as an excipient was 2.5% (V/V). Linezolid represented by Formula B below (manufactured by Pfizer) was used as a control and bacterial activity thereof was compared with those of the test materials.

In test [2] the test system is Enterococcus faecium. As to the method: as §1, §2, §3
Test [3] deals with Linezolid and Vancomycin Resistant Enterococcus faecalis. As to the method:
as §1, §2, §3

Test [4] deals with Linezolid and Vancomycin Resistant Enterococcus faecium (strain 10). As to the method:
as §1, §2, §3

The subject of test [5] is Linezolid and Vancomycin Resistant Enterococcus faecium (strain 11). As to the method:
as §1, §2, §3

Test [6] relates to Methicillin Resistant Staphylococcus aureus. The protocol: as §1, §2, §3
In test [7] the test system is Methicillin Resistant Staphylococcus epidermidis. The protocol: as §1, §2, §3
The test system of test [8] is Moraxella catarrhalis. As to the method:
as §1, §2, §3

The subject of test [9] is Staphylococcus aureus. The protocol:
as §1, §2, §3

In test [10] the test system is Staphylococcus epidermidis. As to the method: as §1, §2, §3
Test [11] deals with Vancomycin Resistant Enterococcus faecalis. The protocol:
as §1, §2, §3

Test [12] concerns Vancomycin Resistant Enterococcus faecium. The protocol:
as §1, §2, §3

Where [13] appears, read: Enterococcus faecalis, strain 5, E. faecalis, read-out: MIC90.
Where [14] appears, read: Enterococcus faecium, strain 8, E. faecium, read-out: MIC90.
Where [15] appears, read: Enterococcus faecalis, strain 7, E. faecalis VanA LR, read-out: MIC90.
The mark [16] stands for this setting: Enterococcus faecium, strain 10, E. faecium VanA LR, read-out: MIC90.
The mark [17] stands for this setting: Enterococcus faecium, strain 11, E. faecium VanA LR, read-out: MIC90.
Setting [18] is: Staphylococcus aureus, strain 2, S. aureus MR, read-out: MIC90.
Setting [19] is: Staphylococcus epidermidis, strain 4, S. epidermidis MR, read-out: MIC90.
Where [20] appears, read: Moraxella catarrhalis, strain 12, M. catarrhalis, read-out: MIC90.
Setting [21] is: Staphylococcus aureus, strain 1, S. aureus, read-out: MIC90.
The mark [22] stands for this setting: Staphylococcus epidermidis, strain 3, S. epidermidis, read-out: MIC90.
The mark [23] stands for this setting: Enterococcus faecalis, strain 6, E. faecalis VanA, read-out: MIC90.
Setting [24] is: Enterococcus faecium, strain 9, E. faecium VanA, read-out: MIC90.

In general, MIC90 refers to an inhibitory concentration at the 90% level, which refers to growth in some studies and to a panel of isolates in others. Turning to `O=C1O[C@@H](Cn2ccnn2)CN1c1ccc(-c2ccc(N3C=NOCC3)nc2)c(F)c1` [Compound 60], the MIC90 in [1] (setting [13]) worked out at 0.25 µg/mL (≈ 0.59 µM); in test [2] (setting [14]), 0.125 µg/mL (≈ 0.295 µM); in test [3] (setting [15]), 1 µg/mL (≈ 2.36 µM); in [4] (setting [16]), 1 µg/mL (≈ 2.36 µM); in test [5] (setting [17]), 2 µg/mL (≈ 4.72 µM); in test [6] (setting [18]), 0.25 µg/mL (≈ 0.59 µM). For the same molecule, the MIC90 in test [7] (setting [19]) amounted to 0.25 µg/mL (≈ 0.59 µM); in [8] (setting [20]), 1 µg/mL (≈ 2.36 µM); in test [9] (setting [21]), 0.125 µg/mL (≈ 0.295 µM); in test [10] (setting [22]), 0.25 µg/mL (≈ 0.59 µM); in test [11] (setting [23]), 0.25 µg/mL (≈ 0.59 µM); in test [12] (setting [24]) it was 0.125 µg/mL (≈ 0.295 µM).
Turning to `O=C(C(O)CO)N1CCN(c2ccc(-c3ccc(N4C[C@H](CNc5ccon5)OC4=O)cc3F)cn2)C=N1` (some centres unmarked) [Compound 43], the MIC90 in test [1] (strain 5, E. faecalis) was 0.5 µg/mL (≈ 0.951 µM); in test [2] (strain 8, E. faecium), 0.25 µg/mL (≈ 0.476 µM); in test [3] (strain 7, E. faecalis VanA LR) it was 2 µg/mL (≈ 3.81 µM); in [4] (strain 10, E. faecium VanA LR), 4 µg/mL (≈ 7.61 µM); in test [5] (strain 11, E. faecium VanA LR), 4 µg/mL (≈ 7.61 µM); in [6] (strain 2, S. aureus MR), 0.5 µg/mL (≈ 0.951 µM). Besides, the MIC90 is 2 µg/mL (≈ 3.81 µM) in test [7] (strain 4, S. epidermidis MR); 2 µg/mL (≈ 3.81 µM) in test [8] (strain 12, M. catarrhalis); 0.25 µg/mL (≈ 0.476 µM) in test [9] (strain 1, S. aureus); 1 µg/mL (≈ 1.9 µM) in [10] (strain 3, S. epidermidis); 1 µg/mL (≈ 1.9 µM) in test [11] (strain 6, E. faecalis VanA); 0.5 µg/mL (≈ 0.951 µM) in [12] (strain 9, E. faecium VanA).
With `CC(=O)NC[C@H]1CN(c2ccc(-c3ccc(C4=NOCCN4)nc3)c(F)c2)C(=O)O1` [Compound 64], the MIC90 in [1] (setting [13]) came out at 0.25 µg/mL (≈ 0.605 µM); in test [2] (setting [14]), 0.25 µg/mL (≈ 0.605 µM); in test [3] (setting [15]), 1 µg/mL (≈ 2.42 µM); in test [4] (setting [16]) it was 1 µg/mL (≈ 2.42 µM); in test [5] (setting [17]), 2 µg/mL (≈ 4.84 µM); in test [6] (setting [18]), 0.5 µg/mL (≈ 1.21 µM). Further, the MIC90 in test [7] (setting [19]) is 0.5 µg/mL (≈ 1.21 µM); in test [8] (setting [20]), 2 µg/mL (≈ 4.84 µM); in [9] (setting [21]), 0.25 µg/mL (≈ 0.605 µM); in [10] (setting [22]) it was 0.25 µg/mL (≈ 0.605 µM); in test [11] (setting [23]), 0.25 µg/mL (≈ 0.605 µM); in test [12] (setting [24]), 0.25 µg/mL (≈ 0.605 µM).
For the molecule `O=C1O[C@@H](Cn2ccnn2)CN1c1ccc(-c2ccc(N3C=NNCC3)nc2)c(F)c1` [Compound 30], the MIC90 was 0.5 µg/mL (≈ 1.18 µM) in [1] (Enterococcus faecalis); 0.25 µg/mL (≈ 0.592 µM) in test [2] (Enterococcus faecium); 4 µg/mL (≈ 9.47 µM) in [3] (Enterococcus faecalis); 2 µg/mL (≈ 4.73 µM) in test [4] (Enterococcus faecium); 2 µg/mL (≈ 4.73 µM) in test [5] (Enterococcus faecium); 1 µg/mL (≈ 2.37 µM) in test [6] (Staphylococcus aureus). In addition, the MIC90 in test [7] (Staphylococcus epidermidis) is 2 µg/mL (≈ 4.73 µM); in test [8] (Moraxella catarrhalis), 4 µg/mL (≈ 9.47 µM); in [9] (Staphylococcus aureus) it was 0.25 µg/mL (≈ 0.592 µM); in test [10] (Staphylococcus epidermidis) it was 0.5 µg/mL (≈ 1.18 µM); in [11] (Enterococcus faecalis), 1 µg/mL (≈ 2.37 µM); in [12] (Enterococcus faecium) it was 0.5 µg/mL (≈ 1.18 µM).
Regarding `C#CCN1C=NN(c2ccc(-c3ccc(N4C[C@H](CNC(C)=O)OC4=O)cc3F)cn2)CC1` [Compound 55], the MIC90 in test [1] (Enterococcus faecalis) stood at 1 µg/mL (≈ 2.22 µM); in test [2] (Enterococcus faecium), 2 µg/mL (≈ 4.44 µM); in test [3] (Enterococcus faecalis) it was 4 µg/mL (≈ 8.88 µM); in test [4] (Enterococcus faecium) it was 4 µg/mL (≈ 8.88 µM); in [5] (Enterococcus faecium), 4 µg/mL (≈ 8.88 µM); in test [6] (Staphylococcus aureus) it was 4 µg/mL (≈ 8.88 µM). Besides, the MIC90 in test [7] (Staphylococcus epidermidis) was found to be 4 µg/mL (≈ 8.88 µM); in test [9] (Staphylococcus aureus), 1 µg/mL (≈ 2.22 µM); in [10] (Staphylococcus epidermidis), 2 µg/mL (≈ 4.44 µM); in [11] (Enterococcus faecalis), 2 µg/mL (≈ 4.44 µM); in test [12] (Enterococcus faecium), 2 µg/mL (≈ 4.44 µM).
Take `CNC(=O)N1CCN(c2ccc(-c3ccc(N4C[C@H](CNC(=O)OC)OC4=O)cc3F)cn2)C=N1` [Compound 27]: the MIC90 came out at 0.5 µg/mL (≈ 1.03 µM) in [1] (Enterococcus faecalis); 0.25 µg/mL (≈ 0.515 µM) in test [2] (Enterococcus faecium); 4 µg/mL (≈ 8.24 µM) in test [3] (Enterococcus faecalis); 2 µg/mL (≈ 4.12 µM) in [4] (Enterococcus faecium); 2 µg/mL (≈ 4.12 µM) in test [5] (Enterococcus faecium); 2 µg/mL (≈ 4.12 µM) in test [6] (Staphylococcus aureus). Further, the MIC90 was 2 µg/mL (≈ 4.12 µM) in test [7] (Staphylococcus epidermidis); 4 µg/mL (≈ 8.24 µM) in [8] (Moraxella catarrhalis); 0.5 µg/mL (≈ 1.03 µM) in [9] (Staphylococcus aureus); 1 µg/mL (≈ 2.06 µM) in [10] (Staphylococcus epidermidis); 0.5 µg/mL (≈ 1.03 µM) in test [11] (Enterococcus faecalis); 0.5 µg/mL (≈ 1.03 µM) in [12] (Enterococcus faecium).
As to `CNC(=O)N1CCN(c2ccc(-c3ccc(N4C[C@H](CNC(C)=O)OC4=O)cc3F)cn2)C=N1` [Compound 16], the MIC90 in [1] (Enterococcus faecalis) worked out at 0.25 µg/mL (≈ 0.533 µM); in test [2] (Enterococcus faecium), 0.5 µg/mL (≈ 1.07 µM); in test [3] (Enterococcus faecalis), 1 µg/mL (≈ 2.13 µM); in [4] (Enterococcus faecium), 2 µg/mL (≈ 4.26 µM); in test [5] (Enterococcus faecium), 2 µg/mL (≈ 4.26 µM); in [6] (Staphylococcus aureus) it was 1 µg/mL (≈ 2.13 µM). Also, the MIC90 in test [7] (Staphylococcus epidermidis) worked out at 1 µg/mL (≈ 2.13 µM); in test [8] (Moraxella catarrhalis) it was 2 µg/mL (≈ 4.26 µM); in test [9] (Staphylococcus aureus), 0.25 µg/mL (≈ 0.533 µM); in [10] (Staphylococcus epidermidis) it was 0.25 µg/mL (≈ 0.533 µM); in test [11] (Enterococcus faecalis) it was 0.5 µg/mL (≈ 1.07 µM); in test [12] (Enterococcus faecium), 0.5 µg/mL (≈ 1.07 µM).
